What was measured:
Assay type in all cases: cell-based
[1] = tested on: MDA-MB-231 cells; test: Soft-agar colony forming assay, MDA-MB-231; conditions: MDA-MB-231, soft agar, 20 μM
Procedure: It was hypothesized that the specific binding of MC-1-F2 can lead to its specific cellular activity against cancer cells with high FOXC2 expression. This hypothesis was tested by evaluating MC-1-F2's cellular activity on cell lines with different FOXC2 expression levels: MCF-7, BT549, and MDA-MB-231. […] However, further studies are still underway. The specificity in cellular activity of MC-1-F2 was further evaluated in the form of a soft-agar colony forming assay to determine if MC-1-F2 was able to inhibit in vitro tumorigenicity of cancer cells in a FOXC2 expression-dependent manner. […] Further testing is underway in various breast cancer cell lines with different FOXC2 expression levels.
Soft-agar colony-formation assay was performed in 6-well plates. 5×10^3 cells were re-suspended into 1.5 mL 0.3% agarose-DMEM mixture, and seeded onto the 0.5% agarose-DMEM base layer. FBS-supplemented DMEM medium (0.2 mL) containing the compound of determined concentrations was added on the top and changed every 3 days. After 10 days incubation in 37° C. incubator with 5% CO2, 0.5 mL of 0.005% crystal violet solution was added to the top of the agarose gel and incubated overnight. The total number of colonies per well that were >100 microns in size when viewed under a simple microscope were counted. Light microscopy images were captured under 20× magnification.

[2] = tested on: MDA-MB-231 cells; test: Wound healing assay, MDA-MB-231; conditions: MDA-MB-231, 20 μM, 24 hours
Procedure: (§1) Reversal of EMT mediated by MC-1-F2 was anticipated to lead to the inhibition of metastatic capability of cancer cells. […] A wound healing assay was carried out to examine the migratory capabilities of cells in closing a “wound” or gap over a period of 24 hours. […] Inhibition of migratory capabilities of cells only measures one aspect of EMT progression. EMT is marked also by increased invasiveness of cancer cells. Therefore, the invasive property of MDA-MB-231 cells treated with MC-1-F2 was examined (FIGS. 6B&C).
3×10^5 cells of MDA-MB-231 in 70 μL of DMEM media were seeded on an ibidi μ-dish (Ibidi) and incubated for 24 hours. The insert was removed carefully with tweezers, to create the “wound” and the dish rinsed with DPBS. Followed by the addition of DMEM media with applicable drug. Images were taken at various time points and monitoring of the migration of cells into the “gap” was recorded at several time points.

[3] = tested on: MDA-MB-231 cells; test: Transwell invasion assay, MDA-MB-231; conditions: MDA-MB-231, 20 μM, 24 hours
Procedure: as §1
Matrigel invasion chambers (Corning) were allowed to come to room temperature and allowed to rehydrate for 2 hours in a cell incubator. Cells were treated 24 hours prior to assay and starved in 2% FBS in DMEM for 2 hours prior to assay. A cell suspension containing 5×10^4 cells/mL was prepared. Chemoattractant (DMEM+10% FBS) was added to the bottom of the wells. Using forceps, the inserts were transferred inside the wells and 0.5 mL of cell suspension was immediately added. The chambers were incubated for 22 hours in a humidified tissue culture incubator. After the 22 hours, the non-invading cells were removed by scrubbing the surface of the membrane. […] The cells were stained with 0.5% crystal violet solution and several images of the wells were then taken and total number of cells counted for analysis.

[4] = tested on: PC3 cells; test: MTT cell viability assay, PC3; conditions: Homo sapiens, PC-3, 24 hour treatment
Source text: Inhibition of EMT in CRPC could lead to a new form of therapeutics to aid once androgen-independence is achieved. However, in order for MC-1-F2 to be considered an effective chemotherapeutic agent, its EC50 in prostate cancer needed to be determined as well as how it compares to other chemotherapeutic agents on the market and whether it is able to inhibit chemoresistance or lower the sensitivity of CRPC to commercially available drugs. In order to determine the EC50 of MC-1-F2, an MTT assay on cell viability was performed in both DU145 and PC3. […] These doses are higher than those encountered with breast cancer cell lines. This is most likely due to the lower FOXC2 expression levels founds in prostate cell lines when compared to the breast cell lines.
Cell viability was assessed by MTT (3-(4,5-Dimethylthiazol-2-yl)-2,5-Diphenyltetrazolium Bromide) assay 5,000 cells were seeded on a 96-well cell culture plate and were incubated for at least 24 hours prior to drug treatment. The MTT reagent (Fisher Scientific) was added to the culture medium 3 hours prior to the end of compound incubation. The reaction took place in the 37° C. incubator with 5% CO2 for 3 hours. Cell culture medium was then removed from the wells. Cells with the insoluble purple formazan were lysed with DMSO for 10 mins at room temperature, 200 μL per well. Absorbance was read at 570 nm using a plate reader.

## N=C(N)NCCCCNc1nc(Nc2ccc(Oc3ccccc3)cc2)nc(N2CCN(c3nc(N)nc(Nc4ccc(N5CCOCC5)cc4)n3)CC2)n1 [MC-1-F2]
[1]
  colony forming activity: strong inhibition of colony forming activity
[2]
  migratory activity / wound closure: inhibition of the migratory activity
[3]
  invasive property (transwell invasion): decrease in the invasive property
[4]
  EC50: 46.6 µM

Reference: patent US10814010B2, “FOXC2 inhibitor and methods of use thereof” (The Board of Regents of The University of Texas System, priority 2018, dated 2020)
